The record followed here is ChEMBL document CHEMBL5058646 (2022).

Assay [1] addresses Death-associated protein kinase 1 (Homo sapiens) (UniProt P53355). Kind of assay: DAPK1 SGC Tm panel (DSF). The conditions noted are these: Compound concentration 20.0 uM.
Assay [2] deals with Dual specificity mitogen-activated protein kinase kinase 1 (Homo sapiens) (UniProt Q02750). Put plainly: MAP2K1 SGC Tm panel (DSF). Particulars: Compound concentration 20.0 uM.
The target in assay [3] is Mitogen-activated protein kinase 10 (Homo sapiens) (UniProt P53779). Kind of assay: MAPK10 SGC Tm panel (DSF). Particulars: Compound concentration 20.0 uM.
Chain of Mitogen-activated protein kinase 10 (Homo sapiens) (P53779 whole entry): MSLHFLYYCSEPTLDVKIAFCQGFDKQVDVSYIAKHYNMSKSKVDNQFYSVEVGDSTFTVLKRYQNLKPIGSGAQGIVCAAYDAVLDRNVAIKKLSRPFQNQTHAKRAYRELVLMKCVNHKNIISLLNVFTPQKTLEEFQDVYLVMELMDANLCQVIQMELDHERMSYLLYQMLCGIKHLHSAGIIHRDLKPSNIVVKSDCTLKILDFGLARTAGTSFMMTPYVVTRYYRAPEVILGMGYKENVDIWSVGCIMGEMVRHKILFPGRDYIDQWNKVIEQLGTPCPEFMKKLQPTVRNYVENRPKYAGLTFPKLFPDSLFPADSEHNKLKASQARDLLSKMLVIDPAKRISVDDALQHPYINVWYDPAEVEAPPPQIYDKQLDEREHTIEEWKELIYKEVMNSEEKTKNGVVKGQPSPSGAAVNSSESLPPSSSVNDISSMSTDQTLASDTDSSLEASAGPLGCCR
For assay [4], the target named is MAP/microtubule affinity-regulating kinase 3 (Homo sapiens) (UniProt P27448). Kind of assay: MARK3 SGC Tm panel (DSF). The conditions noted are these: Compound concentration 20.0 uM.
Chain of MAP/microtubule affinity-regulating kinase 3 (Homo sapiens) (P27448 whole entry, looked up): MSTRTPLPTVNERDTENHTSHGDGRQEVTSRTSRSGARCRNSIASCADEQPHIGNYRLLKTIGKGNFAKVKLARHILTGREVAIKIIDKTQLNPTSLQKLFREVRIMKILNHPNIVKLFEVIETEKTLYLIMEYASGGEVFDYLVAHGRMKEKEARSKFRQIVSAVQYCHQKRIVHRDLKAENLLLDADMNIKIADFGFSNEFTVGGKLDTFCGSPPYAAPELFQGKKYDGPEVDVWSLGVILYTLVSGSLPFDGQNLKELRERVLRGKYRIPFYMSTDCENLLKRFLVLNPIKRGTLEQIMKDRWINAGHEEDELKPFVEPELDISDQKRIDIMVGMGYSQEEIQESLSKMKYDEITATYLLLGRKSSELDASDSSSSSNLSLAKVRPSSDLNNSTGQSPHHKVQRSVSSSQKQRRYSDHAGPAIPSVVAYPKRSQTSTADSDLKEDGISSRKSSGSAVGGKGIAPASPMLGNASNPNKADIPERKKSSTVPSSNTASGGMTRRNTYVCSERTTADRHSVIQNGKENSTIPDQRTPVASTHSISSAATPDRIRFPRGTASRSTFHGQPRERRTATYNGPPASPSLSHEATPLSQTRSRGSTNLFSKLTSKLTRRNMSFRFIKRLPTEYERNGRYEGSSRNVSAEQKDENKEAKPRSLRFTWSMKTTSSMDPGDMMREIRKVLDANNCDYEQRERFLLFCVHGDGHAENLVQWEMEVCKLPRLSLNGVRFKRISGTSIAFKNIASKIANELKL
The target of assay [5] is Dual specificity protein kinase TTK (Homo sapiens) (UniProt P33981). Put plainly: TTK SGC Tm panel (DSF). Particulars: Compound concentration 20.0 uM.
Chain of Dual specificity protein kinase TTK (Homo sapiens) (P33981 whole entry): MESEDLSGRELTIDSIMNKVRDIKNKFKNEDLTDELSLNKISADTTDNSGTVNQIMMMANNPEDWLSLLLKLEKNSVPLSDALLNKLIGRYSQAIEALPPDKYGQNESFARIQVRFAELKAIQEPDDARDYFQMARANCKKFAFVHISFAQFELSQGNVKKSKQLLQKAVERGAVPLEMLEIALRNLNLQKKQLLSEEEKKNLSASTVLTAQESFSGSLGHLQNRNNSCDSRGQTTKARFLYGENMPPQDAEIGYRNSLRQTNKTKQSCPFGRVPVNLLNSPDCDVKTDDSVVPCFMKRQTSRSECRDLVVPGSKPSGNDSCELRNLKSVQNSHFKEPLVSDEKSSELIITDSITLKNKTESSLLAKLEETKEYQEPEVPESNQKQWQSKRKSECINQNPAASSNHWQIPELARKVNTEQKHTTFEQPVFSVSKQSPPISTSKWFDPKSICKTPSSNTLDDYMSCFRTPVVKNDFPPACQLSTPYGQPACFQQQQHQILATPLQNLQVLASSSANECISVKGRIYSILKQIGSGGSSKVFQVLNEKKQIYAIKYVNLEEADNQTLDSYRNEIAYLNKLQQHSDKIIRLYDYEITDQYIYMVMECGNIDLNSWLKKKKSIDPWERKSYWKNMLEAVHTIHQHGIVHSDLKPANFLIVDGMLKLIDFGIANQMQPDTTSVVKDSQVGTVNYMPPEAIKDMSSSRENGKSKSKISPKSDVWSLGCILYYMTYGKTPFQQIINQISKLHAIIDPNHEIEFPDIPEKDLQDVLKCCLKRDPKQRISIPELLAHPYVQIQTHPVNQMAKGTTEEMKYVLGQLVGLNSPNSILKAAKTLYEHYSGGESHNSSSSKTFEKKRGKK
The target in assay [6] is D(1B) dopamine receptor (Homo sapiens) (UniProt P21918). Particulars: Compound concentration 10.0 uM.
Chain of D(1B) dopamine receptor (Homo sapiens) (P21918 whole entry): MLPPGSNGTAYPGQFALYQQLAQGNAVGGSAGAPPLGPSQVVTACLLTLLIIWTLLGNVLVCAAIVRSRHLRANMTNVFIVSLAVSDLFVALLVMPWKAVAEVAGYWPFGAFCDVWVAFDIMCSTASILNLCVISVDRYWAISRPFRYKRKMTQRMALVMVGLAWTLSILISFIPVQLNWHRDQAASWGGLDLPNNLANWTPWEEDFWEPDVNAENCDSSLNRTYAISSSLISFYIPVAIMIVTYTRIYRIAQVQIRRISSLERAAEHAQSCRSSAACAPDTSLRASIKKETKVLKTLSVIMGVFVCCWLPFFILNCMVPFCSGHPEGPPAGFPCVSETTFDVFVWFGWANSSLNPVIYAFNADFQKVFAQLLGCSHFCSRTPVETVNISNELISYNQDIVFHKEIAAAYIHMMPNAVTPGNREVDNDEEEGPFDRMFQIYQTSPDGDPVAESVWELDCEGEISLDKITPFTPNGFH
A further assay addresses Mu-type opioid receptor (Homo sapiens, UniProt P35372). Particulars: Compound concentration 10.0 uM.
Assay [7] deals with T1, Zinc finger and BTB domain-containing protein 2 (Homo sapiens) (UniProt Q8N680).
T1 sequence (whole entry): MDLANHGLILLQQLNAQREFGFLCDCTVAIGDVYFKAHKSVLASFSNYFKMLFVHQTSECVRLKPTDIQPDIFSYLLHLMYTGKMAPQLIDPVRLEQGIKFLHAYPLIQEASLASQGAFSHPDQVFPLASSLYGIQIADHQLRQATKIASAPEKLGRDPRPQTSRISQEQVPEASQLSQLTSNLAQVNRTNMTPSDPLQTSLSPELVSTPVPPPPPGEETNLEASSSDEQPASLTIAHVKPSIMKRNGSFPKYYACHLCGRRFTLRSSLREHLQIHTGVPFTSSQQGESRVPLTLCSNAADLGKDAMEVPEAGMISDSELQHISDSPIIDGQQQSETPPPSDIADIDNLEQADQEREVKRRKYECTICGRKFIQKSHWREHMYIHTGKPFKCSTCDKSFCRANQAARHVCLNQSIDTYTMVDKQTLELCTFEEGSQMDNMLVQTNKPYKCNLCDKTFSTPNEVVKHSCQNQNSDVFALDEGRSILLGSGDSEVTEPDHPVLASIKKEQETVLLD
Particulars: SUD4, Compound concentration 1.0 uM.

Assay [8] deals with T2, Zinc finger and BTB domain-containing protein 11 (Homo sapiens) (UniProt O95625).
T2 sequence (whole entry): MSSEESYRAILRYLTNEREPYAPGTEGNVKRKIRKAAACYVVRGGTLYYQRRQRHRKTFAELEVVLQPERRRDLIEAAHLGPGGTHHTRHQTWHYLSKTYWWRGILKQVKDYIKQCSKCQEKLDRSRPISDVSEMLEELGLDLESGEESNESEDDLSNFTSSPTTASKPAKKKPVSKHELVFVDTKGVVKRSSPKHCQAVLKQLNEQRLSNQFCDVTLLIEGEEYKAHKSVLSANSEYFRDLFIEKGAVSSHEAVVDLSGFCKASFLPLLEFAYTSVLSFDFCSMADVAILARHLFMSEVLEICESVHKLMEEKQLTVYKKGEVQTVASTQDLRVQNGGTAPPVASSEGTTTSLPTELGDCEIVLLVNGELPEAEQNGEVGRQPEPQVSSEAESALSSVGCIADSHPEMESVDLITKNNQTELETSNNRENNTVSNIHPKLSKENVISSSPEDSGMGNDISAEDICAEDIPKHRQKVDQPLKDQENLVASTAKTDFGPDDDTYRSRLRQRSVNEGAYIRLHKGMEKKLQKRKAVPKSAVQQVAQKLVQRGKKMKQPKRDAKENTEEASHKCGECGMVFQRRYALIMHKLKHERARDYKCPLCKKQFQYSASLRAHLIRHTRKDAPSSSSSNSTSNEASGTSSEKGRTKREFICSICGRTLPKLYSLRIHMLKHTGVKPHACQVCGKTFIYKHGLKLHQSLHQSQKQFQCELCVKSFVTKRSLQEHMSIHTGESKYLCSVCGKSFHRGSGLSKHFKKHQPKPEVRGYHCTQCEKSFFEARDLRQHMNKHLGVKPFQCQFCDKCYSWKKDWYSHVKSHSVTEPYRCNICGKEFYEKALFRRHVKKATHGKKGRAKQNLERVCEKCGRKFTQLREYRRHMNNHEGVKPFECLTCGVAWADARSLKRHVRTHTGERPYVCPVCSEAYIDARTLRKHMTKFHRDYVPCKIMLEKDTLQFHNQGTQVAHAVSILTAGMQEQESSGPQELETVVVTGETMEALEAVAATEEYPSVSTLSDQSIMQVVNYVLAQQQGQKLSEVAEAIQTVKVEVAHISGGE
Particulars: OCI-Ly1, Compound concentration 1.0 uM.

Assay [9] has as its target T3, Transcriptional regulator Kaiso (Homo sapiens) (UniProt Q86T24).
T3 sequence (whole entry): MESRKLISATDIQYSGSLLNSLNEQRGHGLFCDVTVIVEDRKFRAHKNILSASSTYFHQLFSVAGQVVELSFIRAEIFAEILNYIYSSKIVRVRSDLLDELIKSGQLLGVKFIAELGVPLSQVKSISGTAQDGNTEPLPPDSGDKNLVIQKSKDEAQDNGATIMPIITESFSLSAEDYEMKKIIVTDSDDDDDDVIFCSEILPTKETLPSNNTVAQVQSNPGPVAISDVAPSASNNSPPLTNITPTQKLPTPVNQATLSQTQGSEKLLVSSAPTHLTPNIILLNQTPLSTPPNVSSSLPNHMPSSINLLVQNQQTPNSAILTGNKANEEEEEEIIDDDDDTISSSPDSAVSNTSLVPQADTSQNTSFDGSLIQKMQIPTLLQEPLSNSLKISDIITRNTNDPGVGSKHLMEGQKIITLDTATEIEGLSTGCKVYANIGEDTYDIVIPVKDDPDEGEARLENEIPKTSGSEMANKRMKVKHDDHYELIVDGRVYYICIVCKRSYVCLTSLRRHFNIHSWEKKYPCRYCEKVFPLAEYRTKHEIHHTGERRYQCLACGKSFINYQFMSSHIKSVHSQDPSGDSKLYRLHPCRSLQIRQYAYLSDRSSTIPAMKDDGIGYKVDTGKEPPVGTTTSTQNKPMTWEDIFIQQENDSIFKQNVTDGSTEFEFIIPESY
Particulars: OCI-Ly1, Compound concentration 1.0 uM.

Chain of Dual specificity mitogen-activated protein kinase kinase 1 (Homo sapiens) (Q02750 whole entry): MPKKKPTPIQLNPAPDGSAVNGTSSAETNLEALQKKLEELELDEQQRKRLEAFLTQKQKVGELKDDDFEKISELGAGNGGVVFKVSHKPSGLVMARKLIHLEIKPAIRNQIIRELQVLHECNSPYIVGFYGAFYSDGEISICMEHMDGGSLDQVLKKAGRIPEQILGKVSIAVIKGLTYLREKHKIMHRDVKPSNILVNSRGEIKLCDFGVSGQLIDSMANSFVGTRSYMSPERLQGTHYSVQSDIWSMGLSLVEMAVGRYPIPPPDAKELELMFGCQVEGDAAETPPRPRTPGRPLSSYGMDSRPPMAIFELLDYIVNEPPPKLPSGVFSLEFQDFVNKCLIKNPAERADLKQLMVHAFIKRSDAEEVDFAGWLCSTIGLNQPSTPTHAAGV
Chain of Mu-type opioid receptor (P35372 whole entry, the tested form may be a part): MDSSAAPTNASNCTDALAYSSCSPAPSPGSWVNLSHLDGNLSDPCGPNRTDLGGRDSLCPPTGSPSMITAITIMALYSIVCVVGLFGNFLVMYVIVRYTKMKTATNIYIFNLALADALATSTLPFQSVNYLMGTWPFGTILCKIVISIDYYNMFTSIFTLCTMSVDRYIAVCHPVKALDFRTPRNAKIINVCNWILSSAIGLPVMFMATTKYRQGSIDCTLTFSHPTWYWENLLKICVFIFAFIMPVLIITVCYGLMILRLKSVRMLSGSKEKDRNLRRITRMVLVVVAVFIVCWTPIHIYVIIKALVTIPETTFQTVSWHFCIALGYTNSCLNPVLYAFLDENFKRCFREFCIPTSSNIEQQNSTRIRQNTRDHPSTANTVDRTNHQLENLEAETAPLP
Chain of Death-associated protein kinase 1 (Homo sapiens) (P53355 whole entry, looked up): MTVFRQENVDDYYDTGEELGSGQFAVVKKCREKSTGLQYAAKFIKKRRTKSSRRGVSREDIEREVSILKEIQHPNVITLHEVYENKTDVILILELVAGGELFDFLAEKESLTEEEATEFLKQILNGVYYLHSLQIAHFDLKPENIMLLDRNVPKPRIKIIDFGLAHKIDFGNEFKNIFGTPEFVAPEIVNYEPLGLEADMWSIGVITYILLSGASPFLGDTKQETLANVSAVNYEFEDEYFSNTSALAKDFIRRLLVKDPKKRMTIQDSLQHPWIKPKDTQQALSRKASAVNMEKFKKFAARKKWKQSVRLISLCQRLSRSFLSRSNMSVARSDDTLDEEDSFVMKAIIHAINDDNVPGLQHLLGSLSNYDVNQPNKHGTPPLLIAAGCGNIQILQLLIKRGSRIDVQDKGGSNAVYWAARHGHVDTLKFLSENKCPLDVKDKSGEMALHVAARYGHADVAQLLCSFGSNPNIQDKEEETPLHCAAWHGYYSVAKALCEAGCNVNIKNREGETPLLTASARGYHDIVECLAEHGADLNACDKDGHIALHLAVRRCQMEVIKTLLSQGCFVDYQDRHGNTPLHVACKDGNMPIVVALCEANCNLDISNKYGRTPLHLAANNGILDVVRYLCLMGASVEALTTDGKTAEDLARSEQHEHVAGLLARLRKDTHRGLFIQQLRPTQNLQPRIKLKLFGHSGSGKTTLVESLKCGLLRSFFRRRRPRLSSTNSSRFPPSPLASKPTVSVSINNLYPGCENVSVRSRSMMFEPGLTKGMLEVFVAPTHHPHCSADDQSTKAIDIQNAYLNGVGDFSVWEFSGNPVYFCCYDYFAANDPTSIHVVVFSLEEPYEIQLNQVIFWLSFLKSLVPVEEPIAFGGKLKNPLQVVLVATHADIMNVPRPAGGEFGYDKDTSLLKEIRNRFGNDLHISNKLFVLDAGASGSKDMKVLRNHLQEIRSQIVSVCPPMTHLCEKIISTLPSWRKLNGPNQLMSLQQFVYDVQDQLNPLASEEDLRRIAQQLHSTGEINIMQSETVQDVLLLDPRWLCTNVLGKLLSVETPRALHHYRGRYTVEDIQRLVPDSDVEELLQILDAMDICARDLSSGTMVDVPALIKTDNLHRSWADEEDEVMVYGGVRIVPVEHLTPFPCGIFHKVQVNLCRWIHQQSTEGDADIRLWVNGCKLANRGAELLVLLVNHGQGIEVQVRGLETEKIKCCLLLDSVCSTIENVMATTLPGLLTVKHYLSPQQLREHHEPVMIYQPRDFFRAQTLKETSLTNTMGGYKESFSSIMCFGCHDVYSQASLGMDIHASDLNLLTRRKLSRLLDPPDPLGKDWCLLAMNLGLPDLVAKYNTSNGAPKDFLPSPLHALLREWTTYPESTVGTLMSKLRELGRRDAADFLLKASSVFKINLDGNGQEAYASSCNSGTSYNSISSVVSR

With `C[C@@H]1CN(c2ncc(Cl)c(Nc3ccc4c(c3)n(CCC(C)(C)O)c(=O)n4C)n2)C[C@H](C)C1(F)F`, the Tm in assay [1] was 53 °C; in assay [2], 45 °C; in assay [3], 48 °C; in assay [4], 35 °C; in assay [5] it was 46 °C. Besides, the inhibition is 26.2% in [6] and 86.6% at Mu-type opioid receptor. Further, the figures for the LogFC in assay [7], in assay [8] and in assay [9] were 0.153, -0.00672 and -0.0964, respectively.

Usually Tm stands for the temperature at the midpoint of the melting transition. As a reminder, the inhibition is the relative decrease from the control value, in per cent.
